Consider five compounds from patent publication US8354438B2, “Neurological functions” (priority 2001, dated 2013).

The test system of series [1] is children with ASD. As to the kind of experiment: Subsequent long-term observation of children with ASD on DH. The series is classed as in vivo, human. The source says:
We have subsequently followed over 100 children with ASD on DH for up to 20 months since the conclusion of this study. […] Further long-term use of cholinesterase inhibitors may lead to greater understanding of the possible ability to sustain new neuronal connections in a brain that has more neuronal plasticity than the elderly with Alzheimer's Disease.

Series [2] relates to children with Autistic spectrum disorders. To be noted: for Rec. Speech Age (N = 31) / CARS (N = 35) / Exp. Speech Age (N = 31): Group I combined with Group II. An excerpt: American Psychiatric Association. Diagnostic and Statistical Manual of Mental Disorders (4th ed.). Washington, D.C.: Author 1994. Diagnosis was confirmed by a pediatric neurologist after completing a comprehensive neurological evaluation and also by a clinical interview with a clinical psychologist. No child was excluded based upon intelligence estimate or developmental language level.
We included patients with abnormal electroencephalograns (EEGs) as they represent an important section of the ASD population. Hollander, E. et al., J. Clin. Psychiatry 2001; 62(7): 530-534. […] Hollander, E. et al., J. Clin. Psychiatry 2001; 62(7): 530-534 DiMartino, A. and Tuchman, R. F., Pediatric Neurology 2001; 25(3): 199-207. Other patients were maintained on corticosteroids (N=6, pulse-dose prednisone or prednisolone), CNS stimulants (N=8, dextroamphetamine/amphetamine or methylphenidate), antidepressants (N=7, fluoxetine hydrochloride or paroxetine), antipsychotics (N=4, risperidone), or alpha adrenergic blocking agents (N=9, clonidine).
The standard donepezil dosage recommendation of 5 milligrams was halved in accordance with pediatric protocols to arrive at a quantity of 2.5 milligrams. The duration of the double-blind, parallel trial was six weeks, at which time all subjects entered open-label treatment for an additional six weeks.
The dose was lowered to 1.25 milligrams or discontinued throughout the 12-week trial if adverse events persisted for more than one week (e.g., irritability, hyperactivity, or gastrointestinal problems). The maximum daily dose was 2.5 milligrams. The medication was adjusted by halving the dose (1.25 mg) if parents noted their children to have tolerable yet persistent gastrointestinal distress, hyperactivity, or irritability. Medication was discontinued if GI intolerability or changes in behavior were considered to be an adverse event (i.e., persisted for more than […]). Medication was administered at dinnertime, unless restlessness occurred in sleep, in which case administration was changed to an earlier time in the day. Dinnertime was selected as the preferred administration time in an attempt to alleviate gastrointestinal side effects observed in the dementia population.
All staff, including nurses, were blinded to the status of the patients on either placebo or drug during the six-week double-blind phase. Patient progress and side effects were monitored at the scheduled appointments by study coordinators, nursing staff, and the primary investigator. Gardner's Receptive One-Word Picture Vocabulary Test (ROWPVT), the EOWPVT-R, and the Childhood Autism Rating Scale (CARS) were administered at baseline, 6-week, and 12-week follow-up visits by the same study coordinator (R.T.):
Outcome Measures: The Receptive One-Word Picture Vocabulary Test, Gardner, M. F. Receptive One-Word Picture Vocabulary Test: ROWPVT. Novato, Calif.: Academic Therapy Publications 1985, examines a child's understanding of language and is an effective tool for assessing receptive language in children with expressive language difficulties. The test was developed for children ages two through twelve. Participants are shown a group of four pictures and asked to point to the picture corresponding to the word presented aurally by the clinician. The test is completed when the child makes six errors of eight consecutive items.
The Expressive One-Word Picture Vocabulary Test—Revised can be used as a tool to determine auditory-visual-verbal association ability as well as expressive language functioning in young children ages two through 12. Gardner, M. F. Expressive One-Word Picture Vocabulary Test (Revised): EOWPVT-R. Novato, Calif.: Academic Therapy Publications 1990. The test was developed to address general concrete concepts, grouping, abstract concepts, and descriptive concepts.

Series [3] has as its system carnosinase. To be noted: compared with the parent compound carnosine; Boldyrev 2000; cited from earlier work.
For series [4], the system named is Helicobacter pylori. To be noted: Matsukura and Tanaka 2000; cited from earlier work.
The mark [5] stands for this setting: Group I (DH), Baseline to Week 6, placebo group 30%.
Where [6] appears, read: Group I (DH, DH) N = 23, BASELINE
[7] abbreviates: Group I (DH, DH), DH 2.5 milligrams, 6-WEEK, p < .05, BL compared to 6 week.
Where [8] appears, read: Group I (DH, DH), DH 2.5 milligrams, 12-WEEK, p < .05, BL compared to 6 and 12 week.

Where a name gives a salt, the structure may show the parent alone. Read-outs that look alike come from different tables or passages of the source. Marks after values point to notes of the source that are not given here.

Regarding `COc1cc2c(cc1OC)C(=O)C(CC1CCN(Cc3ccccc3)CC1)C2` (stereo not shown) [DH, donepezil hydrochloride], the “long-term deficits or down-regulation effect” value in series [1] (over 100 children with ASD on DH for up to 20 months) was “No obvious long-term deficits or suspected down-regulation effect”. In addition, in series [1] (patients stopped the medication after 6 additional months), the “regressions or lost skills after stopping the medication” value is reported as “no patients had major regressions or lost skills”. For the same compound, the “children with CARS change scores ([Baseline]-[6 Week score]) indicating improvement of 3.0 or greater” value in series [2] (setting [5]) was found to be 50%. The “children with clinically meaningful worsening of CARS scores” value in series [2] (setting [5]) is on record as 12.5%. The CARS in series [2] (setting [6]) was 34.7 (SD = 7.7); in series [2] (Group I (DH, DH), DH 2.5 milligrams, 6-WEEK) it was 33.3 (SD = 8.0); in series [2] (Group I (DH, DH), DH 2.5 milligrams, 12-WEEK, p < .05, BL compared to 12 week), 30.8 (SD = 7.9)**; in series [2] (Group II (Placebo, DH): six weeks placebo then six weeks DH, 12-WEEK, end of placebo (6-WEEK) 32.9 (SD = 7.7), p < .05), 30.9 (SD = 9.1)*. The “Exp. Speech Age (mos.)” value was 35.7 (SD = 27.8) mos in series [2] (setting [6]); 43.3 (SD = 27.2)* mos in series [2] (setting [7]); 42.5 (SD = 28.5)*** mos in series [2] (setting [8]); 40.9 (SD = 38.8)***^@ mos in series [2] (Group II (Placebo, DH): six weeks placebo then six weeks DH, 12-WEEK, end of placebo 33.8 (SD = 32.9), reduced N (=16), p < .05). The “Rec. Speech Age (mos.)” value in series [2] (setting [6]) is 38.8 (SD = 23.5) mos; in series [2] (setting [7]), 50.3 (SD = 27.0)* mos; in series [2] (setting [8]), 49.7 (SD = 34.2)*** mos; in series [2] (Group II (Placebo, DH): six weeks placebo then six weeks DH, 12-WEEK, end of placebo 39.83 (SD = 27), reduced N (=16), p < .05, 6 compared to 12 week), 87.37 (SD = 14.2)**^@ mos. For the same compound, the “Rec. Speech Age (N = 31)” value was 53.2 (SD = 25.8) in series [2] (6-weeks DH, p value .002) and 43.7 (SD = 22.2) in series [2] (BASELINE before six weeks DH). Also, the “CARS (N = 35)” value in series [2] (6-weeks DH, p value .004) is given as 32.2 (SD = 8.5); in series [2] (BASELINE before six weeks DH) it was 34.7 (SD = 7.4). The “Exp. Speech Age (N = 31)” value in series [2] (6-weeks DH, p value .044) is given as 43.6 (SD = 31.8); in series [2] (BASELINE before six weeks DH), 39.3 (SD = 27.9). Besides, the “patients dropped from the study after the first 6 weeks who had been on DH” value in series [2] (of nine patients dropped) is listed as 6/9. Also, the “patients discontinued due to diarrhea or stomach cramping” value in series [2] (of the 6 dropped patients on DH) came to 2 patients.
Take `Cn1cncc1C[C@H](NC(=O)CCN)C(=O)O` [ophidine, β-Alanlyl-3-methyl-L-histidine]: the rate of hydrolysis entry in series [3] is recorded as “much more slowly”.
As for `NCCC(=O)[N-][C@@H](Cc1c[nH]cn1)C(=O)[O-].[Zn+2]` [L-CAZ], the Helicobacter pylori inhibition result in series [4] is reported as “inhibited”.
Turning to `NCCC(=O)NCCc1c[nH]cn1` [carcinine], the rate of hydrolysis result in series [3] is reported as “negligible”.
With `CC(=O)NCCC(=O)N[C@@H](Cc1cnc[nH]1)C(=O)O` [N-acetylcarnosine], in series [3], the rate of hydrolysis result was “negligible”.
